Five compounds from patent US9980943B2, “Methods of treating muscular dystrophy” (BOARD OF REGENTS OF THE NEVADA SYSTEM OF HIGHER EDUCATION, …, priority 2013, dated 2018) can be followed below.

Format in all cases: cell-based, mouse
In assay [1] the test system is α7 integrin (LacZ reporter in α7βgal+/− myoblasts). Kind of assay: Myoblast α7+/LacZ integrin FDG assay (Burkin assay in myoblasts, 96-well). Conditions: α7+/LacZ myoblasts, 96-well.
Assay [2] has as its system α7 integrin (LacZ reporter in α7+/LacZ myotubes). Nature of the assay: Myotube α7 integrin FDG assay (Burkin assay in myotubes, 96-well). As to conditions: myotubes.
The subject of assay [3] is β-galactosidase in CMV-LacZ C2C12 myoblasts. Nature of the assay: CMV-LacZ secondary screen in C2C12 myoblasts (β-Gal stabilizing assay). As to conditions: CMV-LacZ C2C12 myoblasts. The method, boiled down: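 Dose-response runs at 0.5–40 μM (0.5, 1, 5, 10, 20, 40 μM; N=2 per point) used a clonal C2C12 line carrying CMV-LacZ. Cells were assayed as myoblasts or as differentiated myotubes, and β-galactosidase levels were read with the FDG fluorogenic substrate.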

Assay [4] concerns β-galactosidase in CMV-LacZ C2C12 myotubes. Kind of assay: CMV-LacZ secondary screen in C2C12 myotubes (β-Gal stabilizing assay). Conditions: C2C12 CMV-LacZ myotubes, fold relative to DMSO. The method, boiled down: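 A secondary screen identifies compounds that stabilize β-gal independently of the native promoter, using CMV-LacZ C2C12 cells. Curves span 0.5–40 μM at six levels, in duplicate.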

SMILES strings stand for the structures.

For `CCOc1ccc2nc(Cl)sc2c1` [MLS000678673-01], the “Burkin Assay in Myoblasts, signal relative to DMSO” value in assay [1] (0.5 uM) was determined as 0.9325; in assay [1] (1 uM), 1.054; in assay [1] (5 uM), 1.044; in assay [1] (10 uM), 0.9687; in assay [1] (20 uM), 1.173; in assay [1] (40 uM), 1.134. For the same compound, the “Burkin Assay in Myotubes, α7 integrin LacZ reporter signal relative to DMSO” value in assay [2] (0.5 uM) amounted to 0.9772; in assay [2] (1 uM) it was 0.9802; in assay [2] (5 uM), 0.9767; in assay [2] (10 uM), 0.9606; in assay [2] (20 uM) it was 0.8655; in assay [2] (40 uM) it was 0.781. Also, the “CMV-LACZ in Myoblasts (β-galactosidase activity relative to DMSO)” value was determined as 1.2106 in assay [3] (0.5 uM); 1.1914 in assay [3] (1 uM); 1.0561 in assay [3] (5 uM); 0.8991 in assay [3] (10 uM); 0.8674 in assay [3] (20 uM); 0.9656 in assay [3] (40 uM). Also, the “CMV-LACZ in Myotubes, signal relative to DMSO” value in assay [4] (0.5 uM) was found to be 1.1229; in assay [4] (1 uM) it was 1.0286; in assay [4] (5 uM), 0.7918; in assay [4] (10 uM), 0.9367; in assay [4] (20 uM) it was 0.9635; in assay [4] (40 uM) it was 1.1835.

In the case of `COc1cc(/C=C/CN2CCN(Cc3ccc(C)o3)C(CCO)C2)ccc1O` (stereo not drawn) [MLS000693704-01], the “Burkin Assay in Myoblasts, signal relative to DMSO” value in assay [1] (0.5 uM) was determined as 1.428; in assay [1] (1 uM), 1.153; in assay [1] (5 uM), 1.1427; in assay [1] (10 uM), 0.9418; in assay [1] (20 uM), 0.8473; in assay [1] (40 uM) it was 0.8019. Moreover, the “Burkin Assay in Myotubes, α7 integrin LacZ reporter signal relative to DMSO” value in assay [2] (0.5 uM) is reported as 0.9315; in assay [2] (1 uM) it was 1.0787; in assay [2] (5 uM) it was 1.003; in assay [2] (10 uM), 0.923; in assay [2] (20 uM) it was 0.9587; in assay [2] (40 uM) it was 0.8263. The “CMV-LACZ in Myoblasts (β-galactosidase activity relative to DMSO)” value came to 0.8989 in assay [3] (0.5 uM); 1.1157 in assay [3] (1 uM); 0.9522 in assay [3] (5 uM); 0.9977 in assay [3] (10 uM); 0.7996 in assay [3] (20 uM); 1.0567 in assay [3] (40 uM). Moreover, the “CMV-LACZ in Myotubes, signal relative to DMSO” value is listed as 0.8571 in assay [4] (0.5 uM); 0.8695 in assay [4] (1 uM); 1.1170 in assay [4] (5 uM); 1.0812 in assay [4] (10 uM); 1.1647 in assay [4] (20 uM); 1.0600 in assay [4] (40 uM).

With `CCOC(=O)c1cc(C(=O)OCC)c(=O)[nH]c1SCc1ccccc1` [MLS001008109-01], the “Burkin Assay in Myoblasts, signal relative to DMSO” value was found to be 0.8481 in assay [1] (0.5 uM); 0.78 in assay [1] (1 uM); 1.002 in assay [1] (5 uM); 0.8626 in assay [1] (10 uM); 0.826 in assay [1] (20 uM); 0.8306 in assay [1] (40 uM). Moreover, the “Burkin Assay in Myotubes, α7 integrin LacZ reporter signal relative to DMSO” value in assay [2] (0.5 uM) worked out at 0.9247; in assay [2] (1 uM), 0.9146; in assay [2] (5 uM), 1.182; in assay [2] (10 uM) it was 0.9335; in assay [2] (20 uM), 0.8264; in assay [2] (40 uM), 0.6103. The “CMV-LACZ in Myoblasts (β-galactosidase activity relative to DMSO)” value in assay [3] (0.5 uM) is 0.9542; in assay [3] (1 uM), 1.1138; in assay [3] (5 uM) it was 0.9228; in assay [3] (10 uM), 1.2178; in assay [3] (20 uM), 0.8730; in assay [3] (40 uM) it was 0.7619. Moreover, the “CMV-LACZ in Myotubes, signal relative to DMSO” value in assay [4] (0.5 uM) stood at 1.0621; in assay [4] (1 uM), 1.0168; in assay [4] (5 uM), 0.9839; in assay [4] (10 uM), 0.9289; in assay [4] (20 uM), 1.0756; in assay [4] (40 uM), 1.0600.

For `Cc1ccc(C(=O)N2CCN(S(=O)(=O)N3CCOCC3)CC2)cc1` [MLS000663185-01], the “Burkin Assay in Myoblasts, signal relative to DMSO” value turned out to be 1.109 in assay [1] (0.5 uM); 0.9744 in assay [1] (1 uM); 1.399 in assay [1] (5 uM); 0.9312 in assay [1] (10 uM); 0.9222 in assay [1] (20 uM); 0.8328 in assay [1] (40 uM). In addition, the “Burkin Assay in Myotubes, α7 integrin LacZ reporter signal relative to DMSO” value in assay [2] (0.5 uM) amounted to 0.968; in assay [2] (1 uM) it was 0.8137; in assay [2] (5 uM), 0.9767; in assay [2] (10 uM), 1.0708; in assay [2] (20 uM), 0.7791; in assay [2] (40 uM) it was 1.118. Further, the “CMV-LACZ in Myoblasts (β-galactosidase activity relative to DMSO)” value amounted to 1.1390 in assay [3] (0.5 uM); 1.1477 in assay [3] (1 uM); 0.9688 in assay [3] (5 uM); 0.8567 in assay [3] (10 uM); 0.9211 in assay [3] (20 uM); 0.9347 in assay [3] (40 uM). Besides, the “CMV-LACZ in Myotubes, signal relative to DMSO” value in assay [4] (0.5 uM) was 1.0924; in assay [4] (1 uM) it was 0.9800; in assay [4] (5 uM), 0.9322; in assay [4] (10 uM) it was 0.8722; in assay [4] (20 uM), 0.9540; in assay [4] (40 uM), 1.1270.

As for `COc1ccc(CNC(=O)C2CCCN(S(=O)(=O)c3c(C)noc3/C=C/N(C)C)C2)cc1` (stereo not drawn) [MLS000925023-01], the “Burkin Assay in Myoblasts, signal relative to DMSO” value turned out to be 0.996 in assay [1] (0.5 uM); 1.035 in assay [1] (1 uM); 0.9523 in assay [1] (5 uM); 0.7957 in assay [1] (10 uM); 0.7765 in assay [1] (20 uM); 0.4179 in assay [1] (40 uM). For the same compound, the “Burkin Assay in Myotubes, α7 integrin LacZ reporter signal relative to DMSO” value in assay [2] (0.5 uM) is on record as 1.16; in assay [2] (1 uM), 1.24; in assay [2] (5 uM), 0.8969; in assay [2] (10 uM) it was 0.8784; in assay [2] (20 uM), 0.8004; in assay [2] (40 uM), 0.7318. Also, the “CMV-LACZ in Myoblasts (β-galactosidase activity relative to DMSO)” value in assay [3] (0.5 uM) was found to be 1.0703; in assay [3] (1 uM), 0.9629; in assay [3] (5 uM), 0.9762; in assay [3] (10 uM) it was 0.8397; in assay [3] (20 uM), 0.5504; in assay [3] (40 uM), 0.3278. Further, the “CMV-LACZ in Myotubes, signal relative to DMSO” value in assay [4] (0.5 uM) amounted to 0.7505; in assay [4] (1 uM) it was 1.1333; in assay [4] (5 uM), 1.1638; in assay [4] (10 uM), 0.8859; in assay [4] (20 uM) it was 1.1565; in assay [4] (40 uM) it was 1.1106.
